Patent EP0443899A1, “Process for synthetising oligomers of (methylbenzyl)xylene and their use as dielectric” (ELF ATOCHEM S.A., priority 1990, dated 1991)

Assays:
Assay type in all cases: physicochemical
[1] = Breakdown voltage, alternating current 50 Hz, method 1 (ramp 2000 V/s, asymmetric point/disc electrodes); settings: 50 Hz AC, point ø 0,6 mm, disc ø 39,6 mm, inter-electrode distance 3,2 mm, mean (extreme values)
Excerpt: (§1) Nous avons comparé différents liquides par la mesure de leur tension de claquage en courant alternatif 50 Hz dans les 2 conditions suivantes (méthodes 1 et 2) : • 1 - rampe 2000 V/s - électrodes dissymétriques. • pointe diamètre 0,6 mm • disque à bords arrondis Rogowski, diamètre 39,6 mm • distance interélectrode = 3,2 mm • 2 - rampe 1000 V/30s - électrodes dissymétriques • pointe diamètre 0,6 mm • disque diamètre 39,6 mm • distance 3,2-10-15-20 mm

[2] = Breakdown voltage, alternating current 50 Hz, method 2 (ramp 1000 V/30 s, asymmetric point/disc electrodes); design: unit not given here; settings: 50 Hz AC, 1000V every 30 s, point ø 0,6, disc ø 39,6, mean (extreme values)
Excerpt: as §1

[3] = Crystallisation of the dielectric liquids at low temperature and on storage; settings: for cristallise: general description, products prepared from orthoxylene
Excerpt: Cristallisation du produit XXO1 de l'exemple 1, du produit XX02 de l'exemple 1, et d'un mélange de 85 % en poids de XXO1 et 15 % en poids de XX02 (voir exemple 1) qu'on appelle XX05.
On effectue les mêmes essais que dans l'exemple 3 mais avec des produits XX01 et XX02 préparés comme dans l'exemple 1 sauf qu'on utilise un mélange de 75 % d'orthoxylène et 25 % de paraxylène ou bien de 100 % d'orthoxylène.

| tension de claquage [1] | tension de claquage ([2]; inter-electrode distance 3,2 mm) | tension de claquage ([2]; inter-electrode distance 10 mm) | tension de claquage ([2]; inter-electrode distance 15 mm) | tension de claquage ([2]; inter-electrode distance 20 mm) | Cristallisation ([3]; Example 3, products of Example 1 (from orthoxylene)) [°C] | cristallise [3] | Substance |
| --- | --- | --- | --- | --- | --- | --- | --- |
| 39,0 (34,9-44,4) (10) | – | – | – | – | – | – | dodécylbenzène ramifié [DDB] |
| – | 41,2 (37,7-45,3) (5) | 69,5 (65,3-75,8) (5) | 82,4 (74-89) (5) | 93,8 (90,0-105,0) (5) | -40 | -40 °C | (méthylbenzyl)xylène [XX01] |
| – | – | – | – | – | – | solide à la température ambiante | di(méthylbenzyl)xylène |
